Test results: publication PMC3527569, “Anti-Inflammatory and Vasoprotective Activity of a Retroviral-Derived Peptide, Homologous to Human Endogenous Retroviruses: Endothelial Cell Effects” (PLoS ONE, 2012)
“Also recorded” adds a separate entry of the source. Where no end group is shown, it is not given here.

Assays:
[1] = test system: inflammatory accumulation of monocytes/macrophages; assay: Mouse NaIO4-induced inflammatory peritonitis model; assay type: in vivo, mouse (CD-1); conditions: monocyte/macrophage accumulation at 48 h; for Dose Achieving Maximum Inhibition (nmoles) / Dose Achieving Maximum Inhibition (µg): CD-1 mice, agent s.c. 24 h before i.p. NaIO4; for Maximum Inhibition (%): groups of five CD-1 mice, agent s.c. 24 h before i.p. NaIO4 (5 mM, 1.0 ml), one experiment; for IC50 (nmoles) / IC50 (µg): in vivo dose per mouse, s.c. 24 h before i.p. NaIO4
Protocol: Effects of test compounds on the inflammatory accumulation of monocytes/macrophages or neutrophils in vivo were determined using a mouse peritonitis model. Briefly, groups of five 6–8 week old CD-1 outbred mice (Charles River; Raleigh, NC) were injected intraperitoneally (i.p.) with 1.0 ml of a sterile inflammatory stimulus (NaIO4; 5 mM in sterile isotonic saline; Sigma; St. Louis, MO). This procedure results in a dramatic accumulation of neutrophils in the peritoneal cavity which peaks at 6–8 h post injection, followed by an accumulation of monocytes/macrophages which peaks at 48–72 h post injection. Mice were euthanized by CO2 asphyxiation at either 6 h (for neutrophils) or 48 h (for monocyte/macrophages), the peritoneal cavities lavaged with two 10-ml washes of heparinized (10 u/ml; Sigma; St. Louis, MO) HBSS containing 0.1% (w/v) BSA, the washes pooled, and total and differential cells counts determined for each pooled cell suspension. Each test material was evaluated in a group of five mice, each of which was injected subcutaneously in the thigh with 0.2 ml of test material in HBSS 24 h prior to the i.p. injection of the inflammatory stimulus.

carrageenan-induced DIC = assay: Mouse carrageenan-induced DIC model, lethality; assay type: in vivo, mouse (CD-1); conditions: data not shown
Protocol: Groups of 10 male CD-1 mice were injected i.p. with 0.25 ml of either vehicle (PBS) or peptide in vehicle at varying times prior to the i.p. injection of 1.0 ml of carrageenan (0.45% [w/v] in PBS; Sigma). In experiments where serum cytokine levels were determined, groups of 5 mice were euthanized at 1-, 2-, 4-, 8-, and 24-h post injection of carrageenan, blood collected by cardiac puncture into heparinized syringes, and the resultant plasma stored at −80°C until assayed by ELISA. […] At 1-, 2-, 4-, and 24-h post injection of carrageenan, five mice from each group were euthanized and heparinized blood samples collected from the heart using heparinized syringes for subsequent determinations of WBC (white blood cell) counts, RBC (red blood cell) counts, or PLT (platelet) counts.

systolic blood pressure = assay: SHR rat hypertension model (tail cuff); assay type: in vivo; conditions: 100 mg/kg orally (gavage), groups of 3 SHR rats, tail cuff, vs 0 h value
Protocol: As part of a general pharmacological screen, MN10021 was evaluated in a rat model of hypertension by MDS-PanLabs (Bothell, WA). […] Blood pressure measurements were made by tail cuff at 1, 2, and 4 h post administration of test compounds. A decrease of ≥10% of the baseline systolic blood pressure is considered significant in this assay.

[2] = test system: iNOS (inducible nitric oxide synthase) mRNA; assay: RT-PCR of iNOS mRNA in HUVEC; assay type: cell-based, human; conditions: for induction of mRNA for iNOS in HUVEC: 50 µM peptide, 3 h, 37°C, quiescent HUVEC, RT-PCR
Protocol: (§1) Cells were cultured with various concentrations of test materials, either with or without stimulus, for varying times. The cells were collected, washed and total RNA isolated using the RNeasy Mini Kit (Qiagen; Valencia, CA). Following isolation the RNA was treated with 7 units of DNase I according to the RNase-Free DNase Set (Qiagen; Valencia, CA) protocol. Using these procedures we usually obtained ∼50 µg of total RNA/10^7 cells. cDNA was prepared from the isolated mRNAs and RT-PCR performed on the target cytokines/chemokines/growth factors using appropriate primer pairs and a control primer pair for β-actin (all from R & D Systems; Minneapolis, MN). RT-PCR was generally performed for 30 cycles for β-actin and 35–45 cycles for iNOS and VEGF.

[3] = test system: endothelial nitric oxide synthase (eNOS) mRNA; assay: RT-PCR of eNOS mRNA in HUVEC; assay type: cell-based, human; conditions: data not shown
Protocol: as §1

HUVEC = assay: Staurosporine-induced apoptosis in HUVEC (Cell Death Detection ELISA); assay type: cell-based, human; conditions: for protection against staurosporine-induced apoptosis: 50 µM peptide 3 h before staurosporine (500 nM), measured 18 h after staurosporine (Figure 11B)
Protocol: Apoptosis was measured in HUVEC using the Cell Death Detection ELISA^PLUS kit (Roche Diagnostics; Indianapolis, IN) according to the manufacturer's instructions. This assay is based on a quantitative sandwich-enzyme-immunoassay using mouse monoclonal antibodies directed against both DNA and histones, respectively. It allows the specific determination of mono- and oligonucleosomes in the cytoplasmic fraction of cell lysates (apoptosis) and in the supernatant of dying cells (necrosis). The apoptotic index (AI) was calculated as
where treatment refers to use of a known apoptosis- or necrosis-inducing agent (staurosporine, TNF-α).

[4] = test system: nitrate in HUVEC supernatants; assay: NO release (nitrate as nitrite) from HUVEC; assay type: cell-based, human; conditions: 50 µM peptide
Protocol: HUVEC were grown to 80–90% confluence in 12-well tissue culture plates using defined media provided by Cambrex and supplemented with 10% FBS. Triplicate wells were incubated with either media alone or media containing 50 µM of the indicated peptide. Supernatant samples were removed from each well at 6 h and 24 h post peptide addition and assayed for NO release as measured by the presence of nitrate (converted to nitrite) using a kit supplied by Oxford Biomedical Research (Rochester Hill, MI) according to the manufacturer's instructions.

dengue virus = assay: Vascular leak in liver of mice injected with dengue virus; parameters: species or system mouse; conditions: 1 µg intraperitoneal; dengue virus i.v.; preliminary in vivo studies
iNOS mRNA = iNOS mRNA induction in HUASMC; assay type: cell-based, human; conditions: compared with MN10021
Protocol: as §1

[5] = qualitative ranking of the three peptides
[6] = test system: human monocyte chemotactic responses; parameters: method as in PMID 1634759, PMID 1534759; conditions: cited from earlier work
lymphocyte proliferation = test system: lymphocyte proliferation; parameters: method as in PMID 1634759, PMID 1534759; conditions: cited from earlier work
inflammation [7] = test system: inflammation; parameters: method as in earlier work; conditions: cited from earlier work
inflammation [8] = test system: inflammation; parameters: method as in earlier work; conditions: cited from earlier work; remark: listed apart in the source

Molecule: CC(=O)Nc1ccc(O)cc1 [Acetaminophen, acetaminophen]
- Dose Achieving Maximum Inhibition (nmoles) [1]: 6614 nmol
- Dose Achieving Maximum Inhibition (µg) [1]: 1000 µg
- Maximum Inhibition (%) [1]: 95%
- IC50 (nmoles) [1]: 132 nmol
- IC50 (µg) [1]: 20 µg
- ability to protect mice in DIC model (carrageenan-induced DIC): no success

Molecule: C[C@@H]1C[C@H]2[C@@H]3CCC4=CC(=O)C=C[C@]4(C)[C@@]3(F)[C@@H](O)C[C@]2(C)[C@@]1(O)C(=O)CO [Dexamethasone]
- Dose Achieving Maximum Inhibition (nmoles) [1]: 204 nmol
- Dose Achieving Maximum Inhibition (µg) [1]: 80 µg
- Maximum Inhibition (%) [1]: 75%
- ability to protect mice in DIC model (carrageenan-induced DIC): no success

Molecule: O=C(O)Cc1ccccc1Nc1c(Cl)cccc1Cl [Diclofenac, diclofenac]
- Dose Achieving Maximum Inhibition (nmoles) [1]: 314 nmol
- Dose Achieving Maximum Inhibition (µg) [1]: 100 µg
- Maximum Inhibition (%) [1]: 90%
- IC50 (nmoles) [1]: 16 nmol
- IC50 (µg) [1]: 5 µg
- ability to protect mice in DIC model (carrageenan-induced DIC): no success

Molecule: C[C@](N)(Cc1ccc(O)c(O)c1)C(=O)O [L-methyldopa, reference compound]
- decrease in blood pressure at 1 h (systolic blood pressure): 16%
- decrease in blood pressure at 2 h (systolic blood pressure): 23%
- decrease in blood pressure at 4 h (systolic blood pressure): 28%

Molecule: N=C(N)NN [aminoguanidine]
- ability to protect mice in DIC model (carrageenan-induced DIC): no success

Molecule: COc1ccc2c(c1)c(CC(=O)O)c(C)n2C(=O)c1ccc(Cl)cc1 [indomethacin]
- ability to protect mice in DIC model (carrageenan-induced DIC): no success

Molecule: COc1ccc2cc([C@H](C)C(=O)O)ccc2c1 [naproxen]
- ability to protect mice in DIC model (carrageenan-induced DIC): no success

Molecule: CCN(CC)CCCC(C)Nc1c2ccc(Cl)cc2nc2ccc(OC)cc12 (stereo not shown) [quinacrine]
- ability to protect mice in DIC model (carrageenan-induced DIC): no success

Molecule: CN[C@@H]1C[C@H]2O[C@@](C)([C@@H]1OC)n1c3ccccc3c3c4c(c5c6ccccc6n2c5c31)C(=O)NC4 [staurosporine]
- ability to protect mice in DIC model (carrageenan-induced DIC): no success

Molecule: Ac-GLDLLFLK-NH2 [DUK0005]
- induction of mRNA for iNOS in HUVEC [2]: most effective; also recorded: as effective as MN10021
- effect on expression of mRNA for eNOS [3]: Neither MN10021 nor DUK0005 affected
- protection against staurosporine-induced apoptosis (HUVEC): significant protection
- effect of L-NAME pretreatment on protective effect against staurosporine-induced apoptosis (HUVEC; 2 mM L-NAME 5 h, then 50 µM peptide 3 h, staurosporine 500 nM ON (Figure 12)): no effect
- maximal protection against staurosporine-induced apoptosis (HUVEC; peptide added 3 h before staurosporine, up to 50 µM peptide, quadruplicate wells (Figure 10A, 10C)): ~40%
- nitrate release (as measured by nitrite assay) from HUVEC ([4]; 6 h or ON): induced nitrate release
- effect on vascular leak in the liver of dengue virus-injected mice (dengue virus): inhibit the vascular leak
- induction of iNOS mRNA in HUASMC (iNOS mRNA): as effective as MN10021
- relative solubility among DUK0004, DUK0005, DUK0006 [5]: intermediate

Molecule: Ac-GLDLLYLK-NH2 [DUK0007]
- induction of mRNA for iNOS in HUVEC [2]: does not induce iNOS
- effect on induction of iNOS by DUK005 when combined 1:1 ([2]; HUVEC, data not shown): inhibits the induction of iNOS
- protection against staurosporine-induced apoptosis (HUVEC): no protective effective
- nitrate release, percent of MN10021 ([4]; 6 h and ON incubations): ≤ 25%

Molecule: GLDLLFLK [DUK0001]
- induction of mRNA for iNOS in HUVEC [2]: weak induction

Molecule: GLDLLFLK-NH2 [DUK0006]
- induction of mRNA for iNOS in HUVEC [2]: comparable
- relative solubility among DUK0004, DUK0005, DUK0006 [5]: most soluble

Molecule: LDLLFL [hexapeptide corresponding to the central six amino acids of DUK0005, studied by other investigators]
- effect on in vitro human monocyte chemotactic responses [6]: inhibited
- effect on ligand (CD3) and interleukin-2 (IL-2)-induced lymphocyte proliferation (lymphocyte proliferation): inhibited
- anti-inflammatory activity in mice (inflammation [7]): did not find this hexapeptide to be anti-inflammatory
- anti-inflammatory activity in guinea pigs (inflammation [8]): did not find this hexapeptide to be anti-inflammatory

Molecule: acetyl-GLDLLFLK-acetyl [DUK0004]
- induction of mRNA for iNOS in HUVEC [2]: comparable
- relative solubility among DUK0004, DUK0005, DUK0006 [5]: least soluble
